Reference: ChEMBL document CHEMBL1127758 (Bioorg Med Chem Lett, 1994)

What was measured:
[1] = target: cAMP-dependent protein kinase (PKA) (Homo sapiens, UniProt P22694+P17612+P22612)
Description: Inhibitory activity against cAMP-dependent protein kinase A was determined

[2] = target: Proto-oncogene tyrosine-protein kinase Src (Homo sapiens, UniProt P12931); test: Inhibition of Src tyrosine kinase
[3] = Inhibitory activity against phosphorylase kinase was determined
[4] = Inhibition of Ribosomal protein S6 kinase
[5] = target: Epidermal growth factor receptor (Homo sapiens, UniProt P00533)
Epidermal growth factor receptor, sequence (P00533 whole entry): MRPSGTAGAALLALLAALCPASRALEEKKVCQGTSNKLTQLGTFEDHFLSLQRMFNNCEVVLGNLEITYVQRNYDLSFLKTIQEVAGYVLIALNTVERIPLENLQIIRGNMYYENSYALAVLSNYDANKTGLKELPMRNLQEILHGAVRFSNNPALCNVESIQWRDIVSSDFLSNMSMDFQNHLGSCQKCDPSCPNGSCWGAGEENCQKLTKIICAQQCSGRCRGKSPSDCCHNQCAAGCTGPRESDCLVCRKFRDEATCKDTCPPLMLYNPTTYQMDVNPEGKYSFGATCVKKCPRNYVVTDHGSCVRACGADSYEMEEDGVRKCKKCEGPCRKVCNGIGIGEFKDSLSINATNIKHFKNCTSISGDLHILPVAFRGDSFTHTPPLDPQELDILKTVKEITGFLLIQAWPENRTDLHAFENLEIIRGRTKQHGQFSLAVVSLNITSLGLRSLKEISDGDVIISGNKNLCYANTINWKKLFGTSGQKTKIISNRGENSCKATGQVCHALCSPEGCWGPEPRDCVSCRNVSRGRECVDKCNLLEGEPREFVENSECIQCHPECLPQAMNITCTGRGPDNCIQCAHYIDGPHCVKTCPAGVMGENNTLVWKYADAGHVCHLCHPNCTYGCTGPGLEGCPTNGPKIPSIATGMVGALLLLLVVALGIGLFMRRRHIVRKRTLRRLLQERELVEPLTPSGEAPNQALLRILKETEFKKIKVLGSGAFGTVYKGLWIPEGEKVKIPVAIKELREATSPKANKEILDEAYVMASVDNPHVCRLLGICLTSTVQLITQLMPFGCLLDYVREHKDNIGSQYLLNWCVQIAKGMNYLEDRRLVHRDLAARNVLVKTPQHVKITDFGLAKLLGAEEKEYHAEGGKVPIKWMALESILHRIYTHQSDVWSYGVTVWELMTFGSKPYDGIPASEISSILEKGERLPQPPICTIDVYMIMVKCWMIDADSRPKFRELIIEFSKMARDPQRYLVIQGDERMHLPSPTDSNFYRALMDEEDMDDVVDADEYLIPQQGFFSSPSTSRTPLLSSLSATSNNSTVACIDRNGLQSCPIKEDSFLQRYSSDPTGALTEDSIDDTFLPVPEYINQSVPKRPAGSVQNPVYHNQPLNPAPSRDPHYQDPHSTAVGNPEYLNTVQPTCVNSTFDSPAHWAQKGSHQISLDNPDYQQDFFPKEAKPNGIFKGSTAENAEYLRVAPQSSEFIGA
Description: Inhibitory activity against protein tyrosine kinase of Epidermal growth factor receptor was determined

Proto-oncogene tyrosine-protein kinase Src, sequence (P12931 2-536 limits assumed): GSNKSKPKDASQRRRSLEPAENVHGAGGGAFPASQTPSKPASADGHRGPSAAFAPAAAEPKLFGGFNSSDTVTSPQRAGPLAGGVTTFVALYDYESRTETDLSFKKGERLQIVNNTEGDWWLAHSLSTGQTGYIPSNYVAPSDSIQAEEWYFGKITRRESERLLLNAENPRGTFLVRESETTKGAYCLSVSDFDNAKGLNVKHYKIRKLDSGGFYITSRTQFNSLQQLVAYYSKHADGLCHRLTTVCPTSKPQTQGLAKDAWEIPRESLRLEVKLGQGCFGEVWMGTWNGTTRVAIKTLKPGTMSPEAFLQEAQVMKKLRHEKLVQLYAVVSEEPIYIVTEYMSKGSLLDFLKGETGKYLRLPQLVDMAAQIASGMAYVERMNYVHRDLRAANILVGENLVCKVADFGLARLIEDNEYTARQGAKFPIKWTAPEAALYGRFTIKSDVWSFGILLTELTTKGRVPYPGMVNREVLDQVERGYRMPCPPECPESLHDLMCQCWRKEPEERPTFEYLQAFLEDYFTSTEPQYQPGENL

| SMILES | IC50 [1] [nM] | IC50 [2] [nM] | IC50 [3] [nM] | IC50 [4] [nM] | IC50 [5] [nM] |
| --- | --- | --- | --- | --- | --- |
| CCN(C)[C@H]1C[C@@H]2O[C@](C)([C@H]1OC)n1c3ccccc3c3c4c(c5c6ccccc6n2c5c31)C(=O)NC4 | 1600 | 240 | 70 | – | – |
| CN[C@H]1C[C@@H]2O[C@](C)([C@H]1OC)n1c3ccccc3c3c4c(c5c6ccccc6n2c5c31)[C@@H](O)NC4=O | 3300 | – | 170 | – | – |
| CO[C@H]1[C@@H](N(C)C(=O)c2cccc([N+](=O)[O-])c2)C[C@@H]2O[C@@]1(C)n1c3ccccc3c3c4c(c5c6ccccc6n2c5c31)C(=O)NC4 | 2500 | – | 60 | 100 | – |
| CO[C@H]1[C@@H](N(C)Cc2ccccc2)C[C@@H]2O[C@@]1(C)n1c3ccccc3c3c4c(c5c6ccccc6n2c5c31)C(=O)NC4 | 480 | – | 100 | – | – |
| COC(=O)CN1Cc2c(c3c4ccccc4n4c3c3c2c2ccccc2n3[C@]2(C)O[C@H]4C[C@H](N(C)C(=O)c3ccccc3)[C@@H]2OC)C1=O | > 100000 | – | ~100000 | > 100000 | – |
| CO[C@H]1[C@@H](N(C)C(=O)c2ccccc2Cl)C[C@@H]2O[C@@]1(C)n1c3ccccc3c3c4c(c5c6ccccc6n2c5c31)C(=O)NC4 | 1500 | – | 78 | – | – |
| CO[C@H]1[C@@H](N(C)C(=O)c2ccc(Cl)cc2)C[C@@H]2O[C@@]1(C)n1c3ccccc3c3c4c(c5c6ccccc6n2c5c31)C(=O)NC4 | 2600 | – | 320 | – | – |
| COc1ccc(C(=O)N(C)[C@H]2C[C@@H]3O[C@](C)([C@H]2OC)n2c4ccccc4c4c5c(c6c7ccccc7n3c6c42)C(=O)NC5)cc1 | 1500 | – | 130 | – | – |
| CO[C@H]1[C@@H](N(C)C(=O)c2cc([N+](=O)[O-])cc([N+](=O)[O-])c2)C[C@@H]2O[C@@]1(C)n1c3ccccc3c3c4c(c5c6ccccc6n2c5c31)C(=O)NC4 | > 100000 | – | 370 | 200 | – |
| CO[C@H]1[C@@H](N(C)C(=O)c2ccccc2)C[C@@H]2O[C@@]1(C)n1c3ccccc3c3c4c(c5c6ccccc6n2c5c31)C(=O)NC4=O | 750 | – | 270 | – | – |
| CO[C@H]1[C@@H]([N+](C)(C)C)C[C@@H]2O[C@@]1(C)n1c3ccccc3c3c4c(c5c6ccccc6n2c5c31)C(=O)NC4 | 68 | – | 21 | 50 | – |
| CO[C@H]1[C@@H](N(C)C(=O)CNC(=O)OC(C)(C)C)C[C@@H]2O[C@@]1(C)n1c3ccccc3c3c4c(c5c6ccccc6n2c5c31)C(=O)NC4 | 2250 | 160 | 120 | 200 | – |
| COC(=O)c1ccc(C(=O)N(C)[C@H]2C[C@@H]3O[C@](C)([C@H]2OC)n2c4ccccc4c4c5c(c6c7ccccc7n3c6c42)C(=O)NC5)cc1 | 3670 | – | 53 | – | – |
| CN[C@H]1C[C@@H]2O[C@](C)([C@H]1OC)n1c3ccccc3c3c4c(c5c6ccccc6n2c5c31)C(=O)NC4=O | 26 | 800 | 5 | – | – |
| CO[C@H]1[C@@H](N(C)C(=O)CCC(=O)O)C[C@@H]2O[C@@]1(C)n1c3ccccc3c3c4c(c5c6ccccc6n2c5c31)C(=O)NC4 | 700 | 200 | 62 | – | – |
| CN[C@H]1C[C@@H]2O[C@](C)([C@H]1OC)n1c3ccccc3c3c4c(c5c6ccccc6n2c5c31)C(=O)N[C@@H]4O | – | – | 4 | – | – |
| CO[C@H]1[C@@H](N(C)C(=O)OC(C)(C)C)C[C@@H]2O[C@@]1(C)n1c3ccccc3c3c4c(c5c6ccccc6n2c5c31)C(=O)NC4 | 28000 | – | 420 | 1000 | – |
| CO[C@H]1[C@@H](N(C)C(=O)CN)C[C@@H]2O[C@@]1(C)n1c3ccccc3c3c4c(c5c6ccccc6n2c5c31)C(=O)NC4 | 360 | – | 51 | – | – |
| CO[C@H]1[C@@H](N(C)C(=O)c2cccc(Cl)c2)C[C@@H]2O[C@@]1(C)n1c3ccccc3c3c4c(c5c6ccccc6n2c5c31)C(=O)NC4 | 6800 | – | 1900 | – | – |
| CO[C@H]1[C@@H](N(C)C(=O)C2CCCCC2)C[C@@H]2O[C@@]1(C)n1c3ccccc3c3c4c(c5c6ccccc6n2c5c31)C(=O)NC4 | 1570 | – | 80 | – | – |
| CN[C@H]1C[C@@H]2O[C@](C)([C@H]1OC)n1c3ccccc3c3c4c(c5c6ccccc6n2c5c31)C(=O)N[C@H]4O | – | – | 6 | – | – |
| CO[C@H]1[C@@H](N(C)C(=O)c2ccccc2)C[C@@H]2O[C@@]1(C)n1c3ccccc3c3c4c(c5c6ccccc6n2c5c31)C(=O)N(Cc1ccccc1)C4 | > 100000 | – | ~100000 | > 100000 | – |
| CO[C@H]1[C@@H](N(C)OC(=O)C(C)(C)C)C[C@@H]2O[C@@]1(C)n1c3ccccc3c3c4c(c5c6ccccc6n2c5c31)C(=O)NC4=O | > 100000 | – | 5250 | – | – |
| COC(=O)CN(C)[C@H]1C[C@@H]2O[C@](C)([C@H]1OC)n1c3ccccc3c3c4c(c5c6ccccc6n2c5c31)C(=O)NC4 | 3200 | – | 440 | – | – |

Now from value to compound:

| IC50 [1] [nM] | IC50 [2] [nM] | IC50 [3] [nM] | IC50 [4] [nM] | IC50 [5] [nM] | SMILES |
| --- | --- | --- | --- | --- | --- |
| 480 | – | 40 | – | – | COC(=O)N(C)[C@H]1C[C@@H]2O[C@](C)([C@H]1OC)n1c3ccccc3c3c4c(c5c6ccccc6n2c5c31)C(=O)NC4 |
| 1500 | – | 10 | – | – | CO[C@H]1[C@@H](N(C)C(C)=O)C[C@@H]2O[C@@]1(C)n1c3ccccc3c3c4c(c5c6ccccc6n2c5c31)C(=O)NC4 |
| 1000 | – | 19 | – | – | CO[C@H]1[C@@H](N(C)S(C)(=O)=O)C[C@@H]2O[C@@]1(C)n1c3ccccc3c3c4c(c5c6ccccc6n2c5c31)C(=O)NC4 |
| 1400 | – | 24 | – | – | CO[C@H]1[C@@H](N(C)CCC#N)C[C@@H]2O[C@@]1(C)n1c3ccccc3c3c4c(c5c6ccccc6n2c5c31)C(=O)NC4 |
| 140 | – | 15 | – | – | CO[C@H]1[C@@H](N(C)CC(=O)O)C[C@@H]2O[C@@]1(C)n1c3ccccc3c3c4c(c5c6ccccc6n2c5c31)C(=O)NC4 |
| 380 | – | 12 | – | – | CO[C@H]1[C@@H](N(C)C(=O)c2cccnc2)C[C@@H]2O[C@@]1(C)n1c3ccccc3c3c4c(c5c6ccccc6n2c5c31)C(=O)NC4 |
| 360 | – | 50 | – | – | CCCCC(O)CN(C)[C@H]1C[C@@H]2O[C@](C)([C@H]1OC)n1c3ccccc3c3c4c(c5c6ccccc6n2c5c31)C(=O)NC4 (some centres not stated) |
| 17000 | – | 10 | 100 | – | CO[C@H]1[C@@H](N(C)C(=O)C(F)(F)F)C[C@@H]2O[C@@]1(C)n1c3ccccc3c3c4c(c5c6ccccc6n2c5c31)C(=O)NC4 |
| 1600 | – | 10 | 900 | 12500 | CNC(=S)N(C)[C@H]1C[C@@H]2O[C@](C)([C@H]1OC)n1c3ccccc3c3c4c(c5c6ccccc6n2c5c31)C(=O)NC4 |
| 750 | – | 20 | – | 8180 | CO[C@H]1[C@@H](N(C)C(=O)c2cnccn2)C[C@@H]2O[C@@]1(C)n1c3ccccc3c3c4c(c5c6ccccc6n2c5c31)C(=O)NC4 |
| 2250 | – | 22 | – | – | CN[C@H]1C[C@@H]2O[C@](C)([C@H]1OC)n1c3ccccc3c3c4c(c5c6ccccc6n2c5c31)[C@H](O)NC4=O |
| – | – | 48 | – | – | CO[C@H]1[C@@H](N(C)C(=O)c2ccccc2)C[C@@H]2O[C@@]1(C)n1c3ccccc3c3c4c(c5c6ccccc6n2c5c31)C(=O)NC4 |
| – | – | 35 | – | – | CO[C@H]1[C@@H](N(C)C(=O)c2ccccc2)C[C@@H]2O[C@@]1(C)n1c3ccccc3c3c4c(c5c6ccccc6n2c5c31)C(=O)N[C@@H]4O |
| 270 | – | 18 | – | – | CC[N+](C)(C)[C@H]1C[C@@H]2O[C@](C)([C@H]1OC)n1c3ccccc3c3c4c(c5c6ccccc6n2c5c31)C(=O)NC4 |
| 55 | – | 15 | – | – | CO[C@H]1[C@@H](N(C)c2ccccc2)C[C@@H]2O[C@@]1(C)n1c3ccccc3c3c4c(c5c6ccccc6n2c5c31)C(=O)NC4 |
| 10000 | – | 30 | 100 | – | CO[C@H]1[C@@H](N(C)C(=O)c2ccc(C(=O)O)cc2)C[C@@H]2O[C@@]1(C)n1c3ccccc3c3c4c(c5c6ccccc6n2c5c31)C(=O)NC4 |
